From PubChem BioAssay AID2334 (Sanford-Burnham Center for Chemical Genomics, 2010)

Tested on: HEK293 NOD2/MDP-stimulated NF-kB reporter inhibition
Experiment: PubChem AID 2334

Molecule O=C(Nc1nc2c(F)cc(F)cc2s1)c1ccc([N+](=O)[O-])o1 has an IC50 of 15.6 µM.
